Experimental data as given in patent US20120053053A1, “PYRIMIDINE DERIVATIVES AND THEIR USE AS HERBICIDES” (SYNGENTA CROP PROTECTION, LLC, priority 2009, published 2012).
“And” between values parts separate entries of the source, which are not always exact repeats. Identical values can stand only once.

Legend:
Assay type in all cases: in vivo
[1] = test system: Alopecurus myosuroides (ALOMY); assay: Pre-emergence biological efficacy (percentage damage); conditions: evaluated after 13 days, 100=total damage, 0=no damage; for Percentage damage ALOMY, pre-emergence / pest or weed control at 1000 g/ha: dose 1,000 g/ha
Method: (§1) Seeds of Alopecurus myosuroides (ALOMY), Setaria faberi (SETFA), Echinochloa crus-galli (ECHCG), Solanum nigrum (SOLNI), Amaranthus retoflexus (AMARE) and Ipomea hederaceae (IPOHE) were sown in standard soil in pots. After cultivation for one day under controlled conditions in a glasshouse (at 24/16° C., day/night; 14 hours light; 65% humidity), the plants were sprayed with an aqueous spray solution derived from the formulation of the technical active ingredient in acetone/water (50:50) solution containing 0.5% Tween 20 (polyoxyethylene sorbitan monolaurate, CAS RN 9005-64-5) to give a final dose of 250 or 1000 g/ha of test compound. The test plants were then grown under controlled conditions in the glasshouse (at 24/16° C., day/night; 14 hours light; 65% humidity) and watered twice daily. After 13 days the test was evaluated (100=total damage to plant; 0=no damage to plant).

[2] = test system: Amaranthus retoflexus (AMARE); assay: as above; conditions: evaluated after 13 days, 100=total damage, 0=no damage; for Percentage damage AMARE, pre-emergence / pest or weed control at 1000 g/ha: dose 1,000 g/ha
Method: as §1

[3] = test system: Echinochloa crus-galli (ECHCG); assay: as above; conditions: evaluated after 13 days, 100=total damage, 0=no damage; for Percentage damage ECHCG, pre-emergence / pest or weed control at 1000 g/ha: dose 1,000 g/ha
Method: as §1

[4] = test system: Ipomea hederaceae (IPOHE); assay: as above; conditions: evaluated after 13 days, 100=total damage, 0=no damage; for Percentage damage IPOHE, pre-emergence / pest or weed control at 1000 g/ha: dose 1,000 g/ha
Method: as §1

Setaria faberi (SETFA) [5] = assay: as above; conditions: evaluated after 13 days, 100=total damage, 0=no damage; for Percentage damage SETFA, pre-emergence / pest or weed control at 1000 g/ha: dose 1,000 g/ha
Method: as §1

Solanum nigrum (SOLNI) [6] = assay: as above; conditions: evaluated after 13 days, 100=total damage, 0=no damage; for Percentage damage SOLNI, pre-emergence / pest or weed control at 1000 g/ha: dose 1,000 g/ha
Method: as §1

[7] = test system: Alopecurus myosuroides (ALOMY); assay: Post-emergence biological efficacy (percentage damage); conditions: evaluated after 13 days, 100=total damage, 0=no damage; for Percentage damage ALOMY, post-emergence / pest or weed control at 1000 g/ha: dose 1,000 g/ha
Method: as §1, with “for 8 days” for “for one day”, “grown on” for “grown”, “in a” for “in the”

[8] = test system: Amaranthus retoflexus (AMARE); assay: as above; conditions: evaluated after 13 days, 100=total damage, 0=no damage; for Percentage damage AMARE, post-emergence / pest or weed control at 1000 g/ha: dose 1,000 g/ha
Method: as §1, with “for 8 days” for “for one day”, “grown on” for “grown”, “in a” for “in the”

[9] = test system: Echinochloa crus-galli (ECHCG); assay: as above; conditions: evaluated after 13 days, 100=total damage, 0=no damage; for Percentage damage ECHCG, post-emergence / pest or weed control at 1000 g/ha: dose 1,000 g/ha
Method: as §1, with “for 8 days” for “for one day”, “grown on” for “grown”, “in a” for “in the”

[10] = test system: Ipomea hederaceae (IPOHE); assay: as above; conditions: evaluated after 13 days, 100=total damage, 0=no damage; for Percentage damage IPOHE, post-emergence / pest or weed control at 1000 g/ha: dose 1,000 g/ha
Method: as §1, with “for 8 days” for “for one day”, “grown on” for “grown”, “in a” for “in the”

Setaria faberi (SETFA) [11] = assay: as above; conditions: evaluated after 13 days, 100=total damage, 0=no damage; for Percentage damage SETFA, post-emergence / pest or weed control at 1000 g/ha: dose 1,000 g/ha
Method: as §1, with “for 8 days” for “for one day”, “grown on” for “grown”, “in a” for “in the”

Solanum nigrum (SOLNI) [12] = assay: as above; conditions: evaluated after 13 days, 100=total damage, 0=no damage; for Percentage damage SOLNI, post-emergence / pest or weed control at 1000 g/ha: dose 1,000 g/ha
Method: as §1, with “for 8 days” for “for one day”, “grown on” for “grown”, “in a” for “in the”

[13] = Alopecurus myosuroides, 312 h, dose 250 g/ha
[14] = Amaranthus retroflexus, 312 h, dose 250 g/ha
[15] = Echinochloa crus-galli, 312 h, dose 250 g/ha
[16] = Ipomoea hederacea, 312 h, dose 250 g/ha
[17] = Setaria faberi, 312 h, dose 250 g/ha
[18] = Solanum nigrum, 312 h, dose 250 g/ha

Compound	Percentage damage ALOMY, pre-emergence [1]	Percentage damage AMARE, pre-emergence [2]	Percentage damage ECHCG, pre-emergence [3]	Percentage damage IPOHE, pre-emergence [4]	Percentage damage SETFA, pre-emergence (Setaria faberi (SETFA) [5])	Percentage damage SOLNI, pre-emergence (Solanum nigrum (SOLNI) [6])	Percentage damage ALOMY, post-emergence [7]	Percentage damage AMARE, post-emergence [8]	Percentage damage ECHCG, post-emergence [9]	Percentage damage IPOHE, post-emergence [10]	Percentage damage SETFA, post-emergence (Setaria faberi (SETFA) [11])	Percentage damage SOLNI, post-emergence (Solanum nigrum (SOLNI) [12])	pest or weed control at 1000 g/ha ([1]; Alopecurus myosuroides, 312 h)	pest or weed control at 1000 g/ha ([3]; Echinochloa crus-galli, 312 h)	pest or weed control at 1000 g/ha ([4]; Ipomoea hederacea, 312 h)	pest or weed control at 1000 g/ha (Setaria faberi (SETFA) [5]; Setaria faberi, 312 h)	pest or weed control at 1000 g/ha (Solanum nigrum (SOLNI) [6]; Solanum nigrum, 312 h)	pest or weed control at 1000 g/ha ([7]; Alopecurus myosuroides, 312 h)	pest or weed control at 1000 g/ha ([8]; Amaranthus retroflexus, 312 h)	pest or weed control at 1000 g/ha ([9]; Echinochloa crus-galli, 312 h)	further results
C/C=C/c1c(N)nc(C2CC2)nc1C(=O)OC [2-62 (E)]	10%	40%	10%	30%	0%	70%	10%	40%	10%	50%	20%	70%	–	–	–	–	–	–	–	–	–
C/C=C\c1c(N)nc(C2CC2)nc1C(=O)OC [2-62 (Z)]	20%	90%	10%	100%	20%	100%	10%	70%	10%	100%	30%	70%	–	–	–	–	–	–	–	–	–
C/C=C/c1c(N)nc(-c2ccc(Cl)c(OC)c2F)nc1C(=O)OC [27-62 (E)]	90%	50%	90%	90%	80%	80%	90%	100%	100%	90%	100%	100%	–	–	–	–	–	–	–	–	–
C/C=C\c1c(N)nc(-c2ccc(Cl)c(OC)c2F)nc1C(=O)OC [27-62 (Z)]	80%	100%	90%	100%	80%	100%	70%	100%	80%	100%	90%	80%	–	–	–	–	–	–	–	–	–
C/C=C/c1c(N)nc(-c2ccc(Cl)c(N(C)C)c2F)nc1C(=O)OC [33-62 (E)]	70%	100%	90%	0%	80%	80%	–	–	–	–	–	–	–	–	–	–	–	–	–	–	–
C/C=C\c1c(N)nc(-c2ccc(Cl)c(N(C)C)c2F)nc1C(=O)OC [33-62 (Z)]	30%	70%	30%	20%	30%	60%	80% and 60%	100%	80% and 70%	40% and 30%	80% and 70%	80%	–	–	–	–	–	–	–	–	–
C=Cc1c(N)nc(C2CC2)nc1C(=O)OC [Compound 2-61, 4-Amino-2-cyclopropyl-5-ethenyl-6-methoxycarbonyl-pyrimidine]	–	–	–	–	–	–	–	–	–	–	–	–	40%	80%	100%	20%	100%	40%	100%	60%	pest or weed control at 1000 g/ha ([2]; Amaranthus retroflexus, 312 h): 100%; pest or weed control at 1000 g/ha ([10]; Ipomoea hederacea, 312 h): 100%; pest or weed control at 1000 g/ha (Setaria faberi (SETFA) [11]; Setaria faberi, 312 h): 80%; pest or weed control at 1000 g/ha (Solanum nigrum (SOLNI) [12]; Solanum nigrum, 312 h): 100%
C=C(C)c1c(N)nc(C2CC2)nc1C(=O)OC [Compound 2-64, 4-Amino-2-cyclopropyl-6-methoxycarbonyl-5-(prop-1-en-2-yl)-pyrimidine]	–	–	–	–	–	–	–	–	–	–	–	–	20%	0%	100%	20%	80%	10%	60%	40%	pest or weed control at 1000 g/ha ([2]; Amaranthus retroflexus, 312 h): 100%; pest or weed control at 1000 g/ha ([10]; Ipomoea hederacea, 312 h): 70%; pest or weed control at 1000 g/ha (Setaria faberi (SETFA) [11]; Setaria faberi, 312 h): 30%; pest or weed control at 1000 g/ha (Solanum nigrum (SOLNI) [12]; Solanum nigrum, 312 h): 80%
CCC/C=C/c1c(N)nc(C2CC2)nc1C(=O)OC [Compound 2-65, 4-Amino-2-cyclopropyl-6-methoxycarbonyl-5-(pent-1-enyl)-pyrimidine]	–	–	–	–	–	–	–	–	–	–	–	–	–	–	–	–	–	–	–	–	pest or weed control at 250 g/ha [1, 13]: 0%; pest or weed control at 250 g/ha [2, 14]: 0%; pest or weed control at 250 g/ha [3, 15]: 0%; pest or weed control at 250 g/ha [4, 16]: 0%; pest or weed control at 250 g/ha (Setaria faberi (SETFA) [5]; [17]): 0%; pest or weed control at 250 g/ha (Solanum nigrum (SOLNI) [6]; [18]): 0%; pest or weed control at 250 g/ha [7, 13]: 0%; pest or weed control at 250 g/ha [8, 14]: 20%; pest or weed control at 250 g/ha [9, 15]: 0%; pest or weed control at 250 g/ha [10, 16]: 40%; pest or weed control at 250 g/ha (Setaria faberi (SETFA) [11]; [17]): 0%; pest or weed control at 250 g/ha (Solanum nigrum (SOLNI) [12]; [18]): 40%
COC(=O)c1nc(C2CC2)nc(N)c1/C=C/C1CC1 [Compound 2-66, 4-Amino-2-cyclopropyl-5-(2-cyclopropyl-ethenyl)-6-methoxycarbonyl-pyrimidine]	–	–	–	–	–	–	–	–	–	–	–	–	0%	0%	0%	0%	0%	0%	50%	0%	pest or weed control at 1000 g/ha ([10]; Ipomoea hederacea, 312 h): 40%; pest or weed control at 1000 g/ha (Setaria faberi (SETFA) [11]; Setaria faberi, 312 h): 10%; pest or weed control at 1000 g/ha (Solanum nigrum (SOLNI) [12]; Solanum nigrum, 312 h): 60%
COC(=O)c1nc(C2CC2)nc(N)c1C=C(C)C [Compound 2-69, 4-Amino-2-cyclopropyl-6-methoxycarbonyl-5-(2-methylprop-1-enyl)-pyrimidine]	–	–	–	–	–	–	–	–	–	–	–	–	10%	0%	70%	0%	90%	10%	20%	0%	pest or weed control at 1000 g/ha ([2]; Amaranthus retroflexus, 312 h): 100%; pest or weed control at 1000 g/ha ([10]; Ipomoea hederacea, 312 h): 70%; pest or weed control at 1000 g/ha (Setaria faberi (SETFA) [11]; Setaria faberi, 312 h): 10%; pest or weed control at 1000 g/ha (Solanum nigrum (SOLNI) [12]; Solanum nigrum, 312 h): 80%
COC(=O)c1nc(-c2ccc(Cl)c(OC)c2F)nc(N)c1C1CC1 [Compound 27-58, 4-Amino-2-(4-chloro-2-fluoro-3-methoxyphenyl)-5-cyclopropyl-6-methoxycarbonyl-pyrimidine]	–	–	–	–	–	–	–	–	–	–	–	–	0%	0%	10%	0%	0%	10%	90%	20%	pest or weed control at 1000 g/ha ([10]; Ipomoea hederacea, 312 h): 60%; pest or weed control at 1000 g/ha (Setaria faberi (SETFA) [11]; Setaria faberi, 312 h): 40%; pest or weed control at 1000 g/ha (Solanum nigrum (SOLNI) [12]; Solanum nigrum, 312 h): 80%
